Assay results: patent publication US20230085307A1, “PYRIDAZINONE COMPOUND AND HERBICIDE” (NISSAN CHEMICAL CORPORATION, priority 2019, published 2023)

Assays:
southern crabgrass [1] = test: Test Example 4: herbicidal effect by soil treatment (Table 19, symbol F); type: in vivo, southern crabgrass (Digitaria ciliaris); conditions: amount of applied herbicide 320 g/ha
Method in brief: (§1)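 In this soil treatment, the formulated compound reached the seeds only through the soil: seeds were buried about 1.5 cm deep in sterilized diluvial soil, then the diluted emulsion was sprayed over the surface. After three weeks at 25° C. to 30° C. in a greenhouse, effects were graded on criteria from an earlier test.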

lambsquarters [2] = test: Test Example 5: herbicidal effect by foliage application, plastic box (Table 20, symbol O); type: in vivo, lambsquarters (Chenopodium album); conditions: foliage application, 320 g/ha, three weeks after application
Method in brief: (§2)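 Plants were sown into sterilized diluvial soil under about 1.5 cm cover and kept in a greenhouse at 25° C. to 30° C. Fourteen days on, foliage received an even spray of the diluted emulsion. Herbicidal or crop effect was judged three weeks afterwards.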

windgrass [3] = test: Test Example 4: herbicidal effect by soil treatment (Table 19, symbol L); type: in vivo, windgrass (Apera spica-venti); conditions: amount of applied herbicide 320 g/ha
Method in brief: as §1

wild oat [4] = test: Test Example 5: herbicidal effect by foliage application, plastic box (Table 20, symbol I); type: in vivo, wild oat (Avena fatua); conditions: foliage application, 320 g/ha, three weeks after application
Method in brief: as §2

false cleavers [5] = test: Test Example 5: herbicidal effect by foliage application, plastic box (Table 20, symbol Q); type: in vivo, false cleavers (Galium spurium); conditions: foliage application, 320 g/ha, three weeks after application
Method in brief: as §2

rice flat sedge = test: Test Example 3: herbicidal effect by foliage application, Wagner pot (Table 18, symbol E); type: in vivo, rice flat sedge (Cyperus iria); conditions: 320 g/ha
Method in brief: (§3)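 Plants were sown in alluvial soil held under 0.1–0.5 cm standing water and grown 14 days in a greenhouse at 25–30 °C. An emulsifiable formulation, water-diluted to the set dose, was then sprayed onto the foliage, and effects were scored three weeks later using previously defined criteria.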

southern crabgrass [6] = test: Test Example 5: herbicidal effect by foliage application, plastic box (Table 20, symbol F); type: in vivo, southern crabgrass (Digitaria ciliaris); conditions: foliage application, 320 g/ha, three weeks after application
Method in brief: as §2

Japanese bulrush = test: Test Example 1: herbicidal activity, application before weed generation under submerged conditions (Table 16, symbol B); type: in vivo, Japanese bulrush (Schoenoplectus juncoides); conditions: 320 g/ha applied herbicide
Method in brief: (§4)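 Emulsion formulation, water-diluted to set dose, was put onto the flooded surface (4 cm depth, alluvial soil) the same day weeds were sown and 2.5-leaf rice transplanted. After 3 weeks at 25-30 °C under glass, each species was rated 0 (≤5% kill) to 5 (≥90% kill).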

blackgrass [7] = test: Test Example 5: herbicidal effect by foliage application, plastic box (Table 20, symbol J); type: in vivo, blackgrass (Alopecurus myosuroides); conditions: foliage application, 320 g/ha, three weeks after application
Method in brief: as §2

persian speedwell [8] = test: Test Example 4: herbicidal effect by soil treatment (Table 19, symbol R); type: in vivo, Persian speedwell (Veronica persica); conditions: amount of applied herbicide 320 g/ha
Method in brief: as §1

barnyard grass [9] = test: Test Example 4: herbicidal effect by soil treatment (Table 19, symbol H); type: in vivo, barnyard grass (Echinochloa crus-galli); conditions: amount of applied herbicide 320 g/ha
Method in brief: as §1

persian speedwell [10] = test: Test Example 5: herbicidal effect by foliage application, plastic box (Table 20, symbol R); type: in vivo, Persian speedwell (Veronica persica); conditions: foliage application, 320 g/ha, three weeks after application
Method in brief: as §2

wild oat [11] = test: Test Example 4: herbicidal effect by soil treatment (Table 19, symbol I); type: in vivo, wild oat (Avena fatua); conditions: amount of applied herbicide 320 g/ha
Method in brief: as §1

blackgrass [12] = test: Test Example 4: herbicidal effect by soil treatment (Table 19, symbol J); type: in vivo, blackgrass (Alopecurus myosuroides); conditions: amount of applied herbicide 320 g/ha
Method in brief: as §1

velvetleaf [13] = test: Test Example 5: herbicidal effect by foliage application, plastic box (Table 20, symbol M); type: in vivo, velvetleaf (Abutilon theophrasti); conditions: foliage application, 320 g/ha, three weeks after application
Method in brief: as §2

Chinese sprangletop = test: Test Example 3: herbicidal effect by foliage application, Wagner pot (Table 18, symbol D); type: in vivo, chinese sprangletop (Leptochloa chinensis); conditions: 320 g/ha
Method in brief: as §3

lambsquarters [14] = test: Test Example 4: herbicidal effect by soil treatment (Table 19, symbol O); type: in vivo, lambsquarters (Chenopodium album); conditions: amount of applied herbicide 320 g/ha
Method in brief: as §1

velvetleaf [15] = test: Test Example 4: herbicidal effect by soil treatment (Table 19, symbol M); type: in vivo, velvetleaf (Abutilon theophrasti); conditions: amount of applied herbicide 320 g/ha
Method in brief: as §1

false cleavers [16] = test: Test Example 4: herbicidal effect by soil treatment (Table 19, symbol Q); type: in vivo, false cleavers (Galium spurium); conditions: amount of applied herbicide 320 g/ha
Method in brief: as §1

windgrass [17] = test: Test Example 5: herbicidal effect by foliage application, plastic box (Table 20, symbol L); type: in vivo, windgrass (Apera spica-venti); conditions: foliage application, 320 g/ha, three weeks after application
Method in brief: as §2

Italian ryegrass [18] = test: Test Example 4: herbicidal effect by soil treatment (Table 19, symbol K); type: in vivo, Italian ryegrass (Lolium multiflorum); conditions: amount of applied herbicide 320 g/ha
Method in brief: as §1

chickweed [19] = test: Test Example 4: herbicidal effect by soil treatment (Table 19, symbol P); type: in vivo, common chickweed (Stellaria media); conditions: amount of applied herbicide 320 g/ha
Method in brief: as §1

oval-leafed pondweed = test: Test Example 1: herbicidal activity, application before weed generation under submerged conditions (Table 16, symbol C); type: in vivo, oval-leafed pondweed (Monochoria vaginalis); conditions: 320 g/ha applied herbicide
Method in brief: as §4

redroot pigweed [20] = test: Test Example 5: herbicidal effect by foliage application, plastic box (Table 20, symbol N); type: in vivo, redroot pigweed (Amaranthus retroflexus); conditions: foliage application, 320 g/ha, three weeks after application
Method in brief: as §2

chickweed [21] = test: Test Example 5: herbicidal effect by foliage application, plastic box (Table 20, symbol P); type: in vivo, common chickweed (Stellaria media); conditions: foliage application, 320 g/ha, three weeks after application
Method in brief: as §2

green foxtail [22] = test: Test Example 5: herbicidal effect by foliage application, plastic box (Table 20, symbol G); type: in vivo, green foxtail (Setaria viridis); conditions: foliage application, 320 g/ha, three weeks after application
Method in brief: as §2

barnyard grass [23] = test: Test Example 3: herbicidal effect by foliage application, Wagner pot (Table 18, symbol H); type: in vivo, barnyard grass (Echinochloa crus-galli); conditions: 320 g/ha
Method in brief: as §3

redroot pigweed [24] = test: Test Example 4: herbicidal effect by soil treatment (Table 19, symbol N); type: in vivo, redroot pigweed (Amaranthus retroflexus); conditions: amount of applied herbicide 320 g/ha
Method in brief: as §1

green foxtail [25] = test: Test Example 4: herbicidal effect by soil treatment (Table 19, symbol G); type: in vivo, green foxtail (Setaria viridis); conditions: amount of applied herbicide 320 g/ha
Method in brief: as §1

barnyard grass [26] = test: Test Example 5: herbicidal effect by foliage application, plastic box (Table 20, symbol H); type: in vivo, barnyard grass (Echinochloa crus-galli); conditions: foliage application, 320 g/ha, three weeks after application
Method in brief: as §2

late watergrass = test: Test Example 1: herbicidal activity, application before weed generation under submerged conditions (Table 16, symbol A); type: in vivo, late watergrass (Echinochloa oryzicola); conditions: 320 g/ha applied herbicide
Method in brief: as §4

Italian ryegrass [27] = test: Test Example 5: herbicidal effect by foliage application, plastic box (Table 20, symbol K); type: in vivo, Italian ryegrass (Lolium multiflorum); conditions: foliage application, 320 g/ha, three weeks after application
Method in brief: as §2

Row | SMILES | herbicidal effect rating, F: southern crabgrass (southern crabgrass [1]) | herbicidal effect grade, O: lambsquarters (lambsquarters [2]) | herbicidal effect rating, L: windgrass (windgrass [3]) | herbicidal effect grade, I: wild oat (wild oat [4]) | herbicidal effect grade, Q: false cleavers (false cleavers [5]) | herbicidal effect on E (rice flat sedge), rating 0-5 (rice flat sedge) | herbicidal effect grade, F: southern crabgrass (southern crabgrass [6]) | Herbicidal effect on B: Japanese bulrush (grade 0-5) (Japanese bulrush) | herbicidal effect grade, J: blackgrass (blackgrass [7]) | herbicidal effect rating, R: persian speedwell (persian speedwell [8]) | herbicidal effect rating, H: barnyard grass (barnyard grass [9]) | herbicidal effect grade, R: persian speedwell (persian speedwell [10]) | herbicidal effect rating, I: wild oat (wild oat [11]) | herbicidal effect rating, J: blackgrass (blackgrass [12]) | herbicidal effect grade, M: velvetleaf (velvetleaf [13]) | herbicidal effect on D (Chinese sprangletop), rating 0-5 (Chinese sprangletop) | herbicidal effect rating, O: lambsquarters (lambsquarters [14]) | herbicidal effect rating, M: velvetleaf (velvetleaf [15]) | herbicidal effect rating, Q: false cleavers (false cleavers [16]) | herbicidal effect grade, L: windgrass (windgrass [17]) | other results
1 | CCCCCCOc1ccc(-c2sc3ccccc3c2-c2c(O)c(C)nn(C)c2=O)cc1 [1-028] | 0 (Herbicidal rate of 5% or less (almost no effect)) | 3 (Herbicidal rate of 40% or more and less than 70%) | 0 (Herbicidal rate of 5% or less (almost no effect)) | 3 (Herbicidal rate of 40% or more and less than 70%) | 4 (Herbicidal rate of 70% or more and less than 90%) | 4 (Herbicidal rate of 70% or more and less than 90%) | 0 (Herbicidal rate of 5% or less (almost no effect)) | 2 (Herbicidal rate of 20% or more and less than 40%) | 0 (Herbicidal rate of 5% or less (almost no effect)) | 0 (Herbicidal rate of 5% or less (almost no effect)) | 0 (Herbicidal rate of 5% or less (almost no effect)) | 3 (Herbicidal rate of 40% or more and less than 70%) | 0 (Herbicidal rate of 5% or less (almost no effect)) | 0 (Herbicidal rate of 5% or less (almost no effect)) | 3 (Herbicidal rate of 40% or more and less than 70%) | 0 (Herbicidal rate of 5% or less (almost no effect)) | 0 (Herbicidal rate of 5% or less (almost no effect)) | 0 (Herbicidal rate of 5% or less (almost no effect)) | 0 (Herbicidal rate of 5% or less (almost no effect)) | 3 (Herbicidal rate of 40% or more and less than 70%) | herbicidal effect rating, K: Italian ryegrass (Italian ryegrass [18]): 0 (Herbicidal rate of 5% or less (almost no effect)); herbicidal effect rating, P: chickweed (chickweed [19]): 0 (Herbicidal rate of 5% or less (almost no effect)); Herbicidal effect on C: oval-leafed pondweed (grade 0-5) (oval-leafed pondweed): 0 (Herbicidal rate of 5% or less (almost no effect)); herbicidal effect grade, N: redroot pigweed (redroot pigweed [20]): 5 (Herbicidal rate of 90% or more (almost completely withered)); herbicidal effect grade, P: chickweed (chickweed [21]): 5 (Herbicidal rate of 90% or more (almost completely withered)); herbicidal effect grade, G: green foxtail (green foxtail [22]): 4 (Herbicidal rate of 70% or more and less than 90%); herbicidal effect on H (barnyard grass), rating 0-5 (barnyard grass [23]): 3 (Herbicidal rate of 40% or more and less than 70%); herbicidal effect rating, N: redroot pigweed (redroot pigweed [24]): 2 (Herbicidal rate of 20% or more and less than 40%); herbicidal effect rating, G: green foxtail (green foxtail [25]): 0 (Herbicidal rate of 5% or less (almost no effect)); herbicidal effect grade, H: barnyard grass (barnyard grass [26]): 0 (Herbicidal rate of 5% or less (almost no effect)); Herbicidal effect on A: late watergrass (grade 0-5) (late watergrass): 1 (Herbicidal rate of 5% or more and less than 20%); herbicidal effect grade, K: Italian ryegrass (Italian ryegrass [27]): 2 (Herbicidal rate of 20% or more and less than 40%)
2 | CCCC(=O)Oc1c(C)nn(C)c(=O)c1-c1c(-c2ccc(N(C)C)cc2)sc2ccccc12 [1-040] | 0 (Herbicidal rate of 5% or less (almost no effect)) | 4 (Herbicidal rate of 70% or more and less than 90%) | 0 (Herbicidal rate of 5% or less (almost no effect)) | 0 (Herbicidal rate of 5% or less (almost no effect)) | 3 (Herbicidal rate of 40% or more and less than 70%) | 5 (Herbicidal rate of 90% or more (almost completely withered)) | 4 (Herbicidal rate of 70% or more and less than 90%) | 3 (Herbicidal rate of 40% or more and less than 70%) | 0 (Herbicidal rate of 5% or less (almost no effect)) | 0 (Herbicidal rate of 5% or less (almost no effect)) | 0 (Herbicidal rate of 5% or less (almost no effect)) | 5 (Herbicidal rate of 90% or more (almost completely withered)) | 0 (Herbicidal rate of 5% or less (almost no effect)) | 0 (Herbicidal rate of 5% or less (almost no effect)) | 5 (Herbicidal rate of 90% or more (almost completely withered)) | 3 (Herbicidal rate of 40% or more and less than 70%) | 0 (Herbicidal rate of 5% or less (almost no effect)) | 0 (Herbicidal rate of 5% or less (almost no effect)) | 0 (Herbicidal rate of 5% or less (almost no effect)) | 0 (Herbicidal rate of 5% or less (almost no effect)) | herbicidal effect rating, K: Italian ryegrass (Italian ryegrass [18]): 3 (Herbicidal rate of 40% or more and less than 70%); herbicidal effect rating, P: chickweed (chickweed [19]): 0 (Herbicidal rate of 5% or less (almost no effect)); Herbicidal effect on C: oval-leafed pondweed (grade 0-5) (oval-leafed pondweed): 1 (Herbicidal rate of 5% or more and less than 20%); herbicidal effect grade, N: redroot pigweed (redroot pigweed [20]): 5 (Herbicidal rate of 90% or more (almost completely withered)); herbicidal effect grade, P: chickweed (chickweed [21]): 5 (Herbicidal rate of 90% or more (almost completely withered)); herbicidal effect grade, G: green foxtail (green foxtail [22]): 5 (Herbicidal rate of 90% or more (almost completely withered)); herbicidal effect on H (barnyard grass), rating 0-5 (barnyard grass [23]): 4 (Herbicidal rate of 70% or more and less than 90%); herbicidal effect rating, N: redroot pigweed (redroot pigweed [24]): 0 (Herbicidal rate of 5% or less (almost no effect)); herbicidal effect rating, G: green foxtail (green foxtail [25]): 0 (Herbicidal rate of 5% or less (almost no effect)); herbicidal effect grade, H: barnyard grass (barnyard grass [26]): 3 (Herbicidal rate of 40% or more and less than 70%); Herbicidal effect on A: late watergrass (grade 0-5) (late watergrass): 3 (Herbicidal rate of 40% or more and less than 70%); herbicidal effect grade, K: Italian ryegrass (Italian ryegrass [27]): 4 (Herbicidal rate of 70% or more and less than 90%)
